Experimental data taken from patent US9090899B2, “Methods of diagnosing and treating prostate cancer characterized by NDRG1-ERG fusion” (CORNELL UNIVERSITY, priority 2009, dated 2015).

Legend:
Type in all cases: cell-based
NDRG1 mRNA = assay: Hormone treatment of LNCaP cells, NDRG1 mRNA by TAQMAN quantitative RT-PCR; conditions: for Induction of NDRG1 mRNA: LNCaP cells, 12 hours, 10 nM 17β-estradiol or 10 nM DPN; for NDRG1 mRNA expression: serum-starved LNCaP cells, 1 nM R1881 or 10 nM E2, 3, 12 and 24 h, fold change against vehicle (Ethanol), normalized against TCFL1
Method: (§1) FIG. 6. Hormone treatment of LNCaP cells induced SLC45A3 and NDRG1 mRNA expression. SLC45A3 (A and C) or NDRG1 (B and D) mRNA expression was induced upon stimulation with synthetic androgen (R1881) and 17β-estradiol (E2). Serum-starved LNCaP cells were stimulated with 1 nM R1881, 1 nM R1881 in combination with 10 μM Flutamide (A and B), 10 nM E2 or 10 nM diarylpropionitrile (DPN) (C and D) for 3, 12 and 24 h. Samples were run in triplicate and normalized against TCFL1. Columns indicate the mean fold change of induction of three biological replicates against vehicle (Ethanol) only treated cells for the respective time points±SEM.
(§2) Hormone Treatment of LNCaP—The prostate cancer cell line LNCaP was obtained from ATCC (Manassas, Va.; cat.#CRL-1740) and maintained according to the suppliers instructions. For hormonal treatment, cells were plated (500,000 cells/10 cm^2) in the presence of complete growth medium supplemented with 1% Penicillin/Streptomycin. Cells were starved for 48 h in charcoal-stripped (CS) medium (RPMI-1640 1×, 5% charcoal-stripped […], 1% Penicillin/Streptomycin) and then treated with R1881 (1 nM), 17β-estradiol (10 nM), diarylpropionitrile (DPN, 10 nM) or ethanol vehicle for 3, 12, and 24 hours. RNA was extracted using the TRIzol Reagent (Invitrogen, Carlsbad, Calif.), subjected to DNase treatment (DNA-free™ Kit, Applied Biosystems) according to the manufacturer's instructions. To test for the specificity of androgen-stimulation, cells were treated with10 μM Flutamide for 2 hours and then treated with R1881 as described above. TAQMAN expression assays (Applied Biosystems) were used to quantify relative levels of SL45A3, NDRG1, PSA (KLK3) and IGF1R.

SLC45A3 mRNA = assay: Hormone treatment of LNCaP cells, SLC45A3 mRNA by TAQMAN quantitative RT-PCR; conditions: for Induction of SLC45A3 mRNA: LNCaP cells, 3 hours, 10 nM 17β-estradiol or 10 nM DPN; for SLC45A3 mRNA expression: serum-starved LNCaP cells, 1 nM R1881 or 10 nM E2, 3, 12 and 24 h, fold change against vehicle (Ethanol), normalized against TCFL1
Method: as §1, §2

IGF2R mRNA = assay: Hormone treatment of LNCaP cells, IGF2R mRNA by TAQMAN quantitative RT-PCR; conditions: serum-starved LNCaP cells; 1 nM R1881 or 10 nM E2; 3, 12 and 24 h; fold change against vehicle (Ethanol), normalized against TCFL1
Method: (§3) FIG. 7. Androgen and 17β-estradiol (E2) signaling of known target genes in LNCaP cells. IGF2R (A) and PSA (B) mRNA expression was induced upon stimulation with synthetic androgen (R1881) and E2. Serum-starved LNCaP cells were stimulated with 1 nM R1881, 1 nM R1881 in combination with 10 μM Flutamide, 10 nM E2 or 10 nM diarylpropionitrile (DPN) for 3, 12 and 24 h. Total RNA was extracted and used for quantitative RT-PCR using TAQMAN assay. Samples were run in triplicate and normalized against TCFL1. Columns indicate the mean fold change of induction of three biological replicates against vehicle (Ethanol) only treated cells for the respective time points±SEM.
as §2, with “RNA was extracted using the TRIzol Reagent (Invitrogen, Carlsbad, Calif.), subjected to DNase treatment (DNA-free™ Kit, Applied Biosystems) according to the manufacturer's instructions. To test for the specificity of androgen-stimulation, cells were treated with10 μM Flutamide for 2 hours and then treated with R1881 as described above.” left out

PSA (KLK3) mRNA = assay: Hormone treatment of LNCaP cells, PSA mRNA by TAQMAN quantitative RT-PCR; conditions: serum-starved LNCaP cells; 1 nM R1881 or 10 nM E2; 3, 12 and 24 h; fold change against vehicle (Ethanol), normalized against TCFL1
Method: as §3
as §2, with “RNA was extracted using the TRIzol Reagent (Invitrogen, Carlsbad, Calif.), subjected to DNase treatment (DNA-free™ Kit, Applied Biosystems) according to the manufacturer's instructions. To test for the specificity of androgen-stimulation, cells were treated with10 μM Flutamide for 2 hours and then treated with R1881 as described above.” left out

N#CC(Cc1ccc(O)cc1)c1ccc(O)cc1 (stereo not drawn) [DPN, diarylpropionitrile]
Induction of NDRG1 mRNA (NDRG1 mRNA): not
Induction of SLC45A3 mRNA (SLC45A3 mRNA): not

C[C@]12CC[C@@H]3c4ccc(O)cc4CC[C@H]3[C@@H]1CC[C@@H]2O [17β-estradiol]
IGF2R mRNA expression (IGF2R mRNA): induced
PSA mRNA expression (PSA (KLK3) mRNA): induced
Induction of NDRG1 mRNA (NDRG1 mRNA): observed
NDRG1 mRNA expression (NDRG1 mRNA): induced
Induction of SLC45A3 mRNA (SLC45A3 mRNA): observed
SLC45A3 mRNA expression (SLC45A3 mRNA): induced

C[C@]1(O)CC[C@H]2[C@@H]3CCC4=CC(=O)CCC4=C3C=C[C@@]21C [R1881]
IGF2R mRNA expression (IGF2R mRNA): induced
PSA mRNA expression (PSA (KLK3) mRNA): induced
NDRG1 mRNA expression (NDRG1 mRNA): induced
SLC45A3 mRNA expression (SLC45A3 mRNA): induced
